11 compounds from PMC6231190 (ACS Medicinal Chemistry Letters, 2018) can be followed below.

For data set [1], the target named is WT p97 (Homo sapiens, UniProt P55072). The settings on record: for p97 inhibition (in words): biochemical ATPase assay; for fold less potent than 17: p97 IC50 ratio vs 17.
Data set [2] in a line: Aqueous solubility. The class given is physicochemical. The settings on record: potassium phosphate buffer, pH 7.4, solubility (μM).
Data set [3] can be described thus: Metabolic stability in human liver microsomes. The following applies: pH 7.4, HLM (t1/2, min). The class given is in vitro ADME. (Liver microsomes are vesicles of endoplasmic reticulum, rich in cytochrome P450 enzymes.)
A short description of data set [4]: Metabolic stability in mouse liver microsomes. It counts as in vitro ADME. The following applies: pH 7.4, MLM (t1/2, min).
The subject of data set [5] is NCI-60 cell line panel. The settings on record: range over lines; for pGI50, CNS tumor cell lines: NCI-60 CNS tumor subpanel; for pGI50, NSCL cancer cell lines: NCI-60 NSCL cancer subpanel; for pGI50, leukemia cell lines: NCI-60 leukemia subpanel; for pGI50, melanoma cell lines: NCI-60 melanoma subpanel; for pGI50, ovarian cancer cell lines: NCI-60 ovarian cancer subpanel; for pGI50, renal cancer cell lines: NCI-60 renal cancer subpanel.

Data set [6] relates to HeLa cell line with the ubiquitin fusion degradation reporter UbG76V-GFP. Nature of the data set: UbG76V-GFP accumulation assay.
The subject of data set [7] is NCI-60 cell line panel. Nature of the data set: cells. The following applies: Homo sapiens, read-out: pGI50, prostate cancer cell lines (converted).
Setting [8] is: Homo sapiens, HeLa, 6 h, read-out: Ub^G76 V-GFP EC50 (μM), 6 h.

The structures appear in SMILES notation. Like-named read-outs stand apart in the source and are kept apart here. Where only a bound is given, the exact number is not on record here.

WT p97, sequence (P55072 whole entry): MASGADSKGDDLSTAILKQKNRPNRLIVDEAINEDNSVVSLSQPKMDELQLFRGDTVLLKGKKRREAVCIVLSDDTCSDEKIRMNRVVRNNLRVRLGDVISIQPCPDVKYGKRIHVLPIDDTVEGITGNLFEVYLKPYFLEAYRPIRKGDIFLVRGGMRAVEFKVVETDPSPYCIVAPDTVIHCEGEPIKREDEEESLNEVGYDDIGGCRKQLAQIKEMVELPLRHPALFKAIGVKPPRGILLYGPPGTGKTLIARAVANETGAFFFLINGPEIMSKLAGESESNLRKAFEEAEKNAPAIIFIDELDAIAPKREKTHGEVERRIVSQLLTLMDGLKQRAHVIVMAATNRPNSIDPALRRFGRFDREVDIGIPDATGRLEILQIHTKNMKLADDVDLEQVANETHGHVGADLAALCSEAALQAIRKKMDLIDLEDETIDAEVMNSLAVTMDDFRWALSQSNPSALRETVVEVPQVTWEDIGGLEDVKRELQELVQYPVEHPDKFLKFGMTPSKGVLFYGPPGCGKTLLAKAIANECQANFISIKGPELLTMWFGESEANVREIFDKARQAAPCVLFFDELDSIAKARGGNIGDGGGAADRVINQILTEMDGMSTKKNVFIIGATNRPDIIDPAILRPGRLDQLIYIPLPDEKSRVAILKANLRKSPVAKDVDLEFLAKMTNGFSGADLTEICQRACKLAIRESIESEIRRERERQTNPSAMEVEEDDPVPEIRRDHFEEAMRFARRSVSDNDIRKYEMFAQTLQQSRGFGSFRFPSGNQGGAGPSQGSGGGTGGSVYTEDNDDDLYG

For the compound `CC(C)N1CC2CN(c3cccc(-c4cc5cc(F)ccc5[nH]4)c3)CC2C1` (centres unmarked) [Compound 22], the “p97 inhibition (in words)” value in data set [1] is reported as “micromolar range”.

For `CC(C)N1CCN(C2CCN(c3cccc(-c4cc5cc(F)ccc5[nH]4)c3)CC2)CC1` [Compound 21], the “p97 inhibition (in words)” value in data set [1] is “micromolar range”.

`CN1CCN(C2(CNC3CCN(c4cccc(-c5cc6cc(F)ccc6[nH]5)c4)CC3)CCC2)CC1` [Compound 23]: the solubility in data set [2] was above 300 µM. For the same compound, the half-life at 10 µM in data set [3] is above 4.5 h. In data set [4], this compound gave a half-life at 10 µM above 4.5 h. In addition, in data set [1] (p97 IC50 ratio vs 24), the “fold more potent than the N-iPr analog (24)” value was found to be 5 fold. Moreover, in data set [5], the “pGI50, CNS tumor cell lines” value is reported as −5.7 to −5.8; the “pGI50, NSCL cancer cell lines” value is listed as −5.7 to −5.8; the “pGI50, leukemia cell lines” value is on record as −5.7 to −6.7; the “pGI50, melanoma cell lines” value was −5.7 to −6.5. Moreover, in data set [5], the “pGI50, ovarian cancer cell lines” value is −5.7 to −5.8 and the “pGI50, renal cancer cell lines” value is given as −5.7 to −5.8. In data set [6] (setting [8]), the EC50 was above 40 µM.

In data set [2], `CC(C)N1CCC(NC2CCN(c3cccc(-c4cc5cc(F)ccc5[nH]4)c3)CC2)CC1` [Compound 17] displayed a solubility above 300 µM. In addition, the half-life at 10 µM in data set [4] is above 4.5 h. Also, in data set [5], the “pGI50, CNS tumor cell lines” value is given as −5.7 to −5.8; the “pGI50, NSCL cancer cell lines” value was −5.7 to −6.0; the “pGI50, leukemia cell lines” value is −5.7 to −6.7; the “pGI50, melanoma cell lines” value is reported as −5.7 to −5.9. In data set [5], the “pGI50, ovarian cancer cell lines” value is −5.7 to −5.8 and the “pGI50, renal cancer cell lines” value is recorded as −5.7 to −5.8. In addition, in data set [5] (NCI-60 colon cancer subpanel), the “pGI50, colon cancer cell lines” value lay within 5.8 to −6.4. Also, the GI50 in data set [7] was 2 µM. For the same compound, the EC50 in data set [6] (setting [8]) was above 40 µM.

For the compound `CC(C)N1CCC(N[C@H]2CC[C@H](c3cccc(-c4cc5cc(F)ccc5[nH]4)c3)CC2)CC1` [Compound 18], the “fold less potent than 17” value in data set [1] is 3–4 fold.

Turning to `CC(C)N1CCC(N[C@H]2CC[C@@H](c3cccc(-c4cc5cc(F)ccc5[nH]4)c3)CC2)CC1` [Compound 19], the “fold less potent than 17” value in data set [1] is reported as above 100 fold. Further, the “fold less potent compared to the trans-isomer” value in data set [1] (p97 IC50 ratio vs 18) was above 20 fold.

As to `c1cc(-c2cc3ccccc3[nH]2)cc(N2CCC(NCCN3CCNCC3)CC2)c1` [Compound 8], the “improvement in potency compared to compound 1” value in data set [1] (p97 IC50 ratio vs 1) was around 3 fold.

Consider `Cc1cc(OCc2nnc(SC3CCCC3)n2-c2cccnc2)ccc1-c1ccc(S(C)(=O)=O)cc1` [NMS-873, reference compound], for which, in data set [6] (read-out: Ub^G76 V-GFP EC50 (μM), 1 h), the EC50 is 1.4 µM.

For the compound `CC(C)N1CCN(CCCNC2CCN(c3cccc(-c4cc5ccccc5[nH]4)c3)CC2)CC1` [Compound 13], the “fold less potent than 2-carbon homologue 11” value in data set [1] (p97 IC50 ratio vs 11) is around 2 fold.

Regarding `CN(C)CCNC1CCN(c2cccc(-c3cc4cc(F)ccc4[nH]3)c2)CC1` [Compound 15], the “fold less potent than 14” value in data set [1] (p97 IC50 ratio vs 14) is on record as above 10 fold.

In the case of `CC(C)N1CCC2(CCN(c3cccc(-c4cc5cc(F)ccc5[nH]4)c3)CC2)CC1` [Compound 20], the “p97 inhibition (in words)” value in data set [1] is recorded as “micromolar range”.

As usually defined, the solubility is the dissolved amount per volume that the medium holds. A high value points to much dissolved substance. A word on the half-life: it is the time needed for the level to fall by half in the phase considered. As usually defined, the EC50 is the midpoint of the concentration-response curve.
